Reference: PubChem BioAssay AID248 (DTP/NCI, 2004)
Values joined by “and” are separate entries in the source; they are usually repeats but may differ in a detail not shown here. Equal entries are not always repeated. Inconclusive results and toxic doses are left out.

Test system: L1210 leukemia ip in BDF1 mice, survival T/C
Test: NCI In Vivo Anticancer Drug Screen. Data for tumor model L1210 Leukemia (intraperitoneal) in B6D2F1 (BDF1) mice
Conditions: endpoint: mean survival time, higher = longer survival
Outline: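 Each compound was tested against a transplantable tumor grown in mice. The endpoint was survival, with treated animals benchmarked against vehicle controls as a simple ratio.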

[1] = dose: 100.0 mg/kg/injection, schedule: Q04DX003 (ip), vehicle: Klucel (hydroxypropylcellulose) (HPC)
[2] = dose: 200.0 mg/kg/injection, schedule: Q04DX003 (ip), vehicle: Klucel (hydroxypropylcellulose) (HPC)
[3] = dose: 400.0 mg/kg/injection, schedule: Q04DX003 (ip), vehicle: Klucel (hydroxypropylcellulose) (HPC)
[4] = dose: 100.0 mg/kg/injection, schedule: Q01DX001 (ip), vehicle: saline
[5] = dose: 100.0 mg/kg/injection, schedule: Q04DX003 (ip), vehicle: saline
[6] = dose: 200.0 mg/kg/injection, schedule: Q01DX001 (ip), vehicle: saline
[7] = dose: 400.0 mg/kg/injection, schedule: Q01DX001 (ip), vehicle: saline
[8] = dose: 400.0 mg/kg/injection, schedule: Q04DX003 (ip), vehicle: saline
[9] = dose: 100.0 mg/kg/injection, schedule: Q01DX009 (ip), vehicle: saline with Tween-80
[10] = dose: 100.0 mg/kg/injection, schedule: Q04DX002 (ip), vehicle: saline with Tween-80
[11] = dose: 200.0 mg/kg/injection, schedule: Q04DX002 (ip), vehicle: saline with Tween-80

C(CC1CO1)CC1OC1CC1CO1 (centres undefined)
T/C (dose: 15.0 mg/kg/injection, schedule: Q01DX009 (ip), vehicle: Klucel (hydroxypropylcellulose) (HPC)): 102 % of control | T/C (dose: 18.0 mg/kg/injection, schedule: Q04DX003 (ip), vehicle: saline with Tween-80): 110 % of control | T/C (dose: 26.0 mg/kg/injection, schedule: Q04DX003 (ip), vehicle: saline with Tween-80): 110 % of control | T/C (dose: 30.0 mg/kg/injection, schedule: Q01DX009 (ip), vehicle: Klucel (hydroxypropylcellulose) (HPC)): 105 % of control | T/C (dose: 39.0 mg/kg/injection, schedule: Q04DX003 (ip), vehicle: saline with Tween-80): 106 % of control | T/C (dose: 40.0 mg/kg/injection, schedule: Q04DX003 (ip), vehicle: saline): 108 % of control | T/C (dose: 45.0 mg/kg/injection, schedule: Q01DX009 (ip), vehicle: Klucel (hydroxypropylcellulose) (HPC)): 108 % of control | T/C (dose: 59.0 mg/kg/injection, schedule: Q04DX003 (ip), vehicle: saline with Tween-80): 108 % of control | T/C (dose: 60.0 mg/kg/injection, schedule: Q01DX009 (ip), vehicle: Klucel (hydroxypropylcellulose) (HPC)): 113 % of control | T/C (dose: 80.0 mg/kg/injection, schedule: Q04DX003 (ip), vehicle: saline): 118 % of control | T/C (dose: 89.0 mg/kg/injection, schedule: Q04DX003 (ip), vehicle: saline with Tween-80): 117 % of control | T/C (dose: 120.0 mg/kg/injection, schedule: Q01DX009 (ip), vehicle: other): 119 % of control | T/C (dose: 133.0 mg/kg/injection, schedule: Q01DX009 (ip), vehicle: saline with Tween-80): 97 % of control | T/C (dose: 133.0 mg/kg/injection, schedule: Q04DX003 (ip), vehicle: saline with Tween-80): 115 % of control | T/C (dose: 160.0 mg/kg/injection, schedule: Q04DX003 (ip), vehicle: saline): 154 % of control

O=C(NCCCl)NC1CCc2ccccc2C1 (centres undefined)
T/C [1]: 93 % of control | T/C [2]: 88 % of control | T/C [3]: 89 % of control

CC(=O)OC1CC2(Cl)C(Cl)=C(Cl)C1(Cl)C2(Cl)Cl (centres undefined)
T/C [4]: 100 % of control | T/C [5]: 89 % of control | T/C [6]: 98 % of control | T/C [7]: 98 % of control | T/C [8]: 103 % of control

O=Cc1cc(Br)ccc1[N+](=O)[O-]
T/C [4]: 103 % of control | T/C [6]: 103 % of control | T/C [7]: 101 % of control

CC(C)C(N)(CCN1CCOCC1)c1cccc2ccccc12 (centres undefined)
T/C [9]: 99 % of control | T/C [10]: 88 % of control | T/C (dose: 200.0 mg/kg/injection, schedule: Q01DX009 (ip), vehicle: saline with Tween-80): 101 % of control | T/C [11]: 92 % of control

COc1ccc([N+](=O)[O-])cc1NS(=O)(=O)c1ccc2ccccc2c1
T/C (dose: 100.0 mg/kg/injection, schedule: Q04DX002 (ip), vehicle: Klucel (hydroxypropylcellulose) (HPC)): 104 % of control | T/C (dose: 200.0 mg/kg/injection, schedule: Q04DX002 (ip), vehicle: Klucel (hydroxypropylcellulose) (HPC)): 100 % of control | T/C (dose: 400.0 mg/kg/injection, schedule: Q04DX002 (ip), vehicle: Klucel (hydroxypropylcellulose) (HPC)): 115 % of control

COc1cc(OC)cc(OC)c1
T/C [1]: 100 % of control | T/C [2]: 105 % of control | T/C [3]: 97 % of control

CC1OC1C(=O)Sc1ccccc1 (centres undefined)
T/C (dose: 25.0 mg/kg/injection, schedule: Q04DX003 (ip), vehicle: Klucel (hydroxypropylcellulose) (HPC)): 100 % of control | T/C (dose: 50.0 mg/kg/injection, schedule: Q04DX003 (ip), vehicle: Klucel (hydroxypropylcellulose) (HPC)): 103 % of control | T/C [1]: 93 % of control and 86 % of control

CC(C)(COC(=O)c1ccccc1)COC(=O)c1ccccc1
T/C (dose: 100.0 mg/kg/injection, schedule: Q01DX009 (ip), vehicle: Klucel (hydroxypropylcellulose) (HPC)): 116 % of control | T/C [1]: 96 % of control | T/C (dose: 200.0 mg/kg/injection, schedule: Q01DX009 (ip), vehicle: Klucel (hydroxypropylcellulose) (HPC)): 93 % of control | T/C [2]: 107 % of control | T/C (dose: 400.0 mg/kg/injection, schedule: Q01DX009 (ip), vehicle: Klucel (hydroxypropylcellulose) (HPC)): 93 % of control | T/C [3]: 98 % of control

O=[N+]([O-])c1ccc(Oc2cccc([N+](=O)[O-])c2)cc1
T/C (dose: 222.0 mg/kg/injection, schedule: Q01DX Z (ip), vehicle: methylcellulose (MC)): 90 % of control | T/C (dose: 333.0 mg/kg/injection, schedule: Q01DX Z (ip), vehicle: methylcellulose (MC)): 95 % of control | T/C (dose: 500.0 mg/kg/injection, schedule: Q01DX Z (ip), vehicle: methylcellulose (MC)): 92 % of control

CN1CCN(C(=O)Nc2ccc(N=Nc3ccccc3)cc2)CC1
T/C [2]: 87 % of control

NC(=O)N1CCCCN1C(N)=O
T/C (dose: 100.0 mg/kg/injection, schedule: Q04DX002 (ip), vehicle: saline): 99 % of control | T/C (dose: 200.0 mg/kg/injection, schedule: Q04DX002 (ip), vehicle: saline): 111 % of control | T/C (dose: 400.0 mg/kg/injection, schedule: Q04DX002 (ip), vehicle: saline): 92 % of control

O=C1c2ccccc2C(=O)N1Cc1ccc([N+](=O)[O-])cc1
T/C (dose: 100.0 mg/kg/injection, schedule: Q01DX001 (ip), vehicle: other): 96 % of control | T/C [1]: 103 % of control | T/C (dose: 200.0 mg/kg/injection, schedule: Q01DX001 (ip), vehicle: other): 87 % of control | T/C [2]: 101 % of control | T/C (dose: 400.0 mg/kg/injection, schedule: Q01DX001 (ip), vehicle: other): 95 % of control | T/C [3]: 97 % of control

CC[n+]1cc(-c2ccc(NC(=O)/C=C\c3ccc(C(=O)Nc4ccc(-c5c[n+](CC)c(N)nc5N)cc4)cc3)cc2)c(N)nc1N
T/C (dose: 2.7 mg/kg/injection, schedule: Q01DX015 (ip), vehicle: saline): 156 % of control | T/C (dose: 6.2 mg/kg/injection, schedule: Q01DX015 (ip), vehicle: saline): 153 % of control | T/C (dose: 9.3 mg/kg/injection, schedule: Q01DX015 (ip), vehicle: saline): 152 % of control | T/C (dose: 14.0 mg/kg/injection, schedule: Q01DX015 (ip), vehicle: saline): 201 % of control | T/C (dose: 22.0 mg/kg/injection, schedule: Q01DX015 (ip), vehicle: saline): 207 % of control | T/C (dose: 45.0 mg/kg/injection, schedule: Q01DX001 (ip), vehicle: saline): 101 % of control | T/C (dose: 70.0 mg/kg/injection, schedule: Q01DX001 (ip), vehicle: saline): 188 % of control | T/C [4]: 225 % of control and 248 % of control | T/C (dose: 150.0 mg/kg/injection, schedule: Q01DX001 (ip), vehicle: saline): 107 % of control | T/C [6]: 105 % of control | T/C (dose: 155.0 micrograms/kg/injection, schedule: Q01DX009 (ip), vehicle: saline): 121 % of control

CC1(C)/C(=C\C(=O)O)C2C=CC1C2 (centres undefined)
T/C [4]: 94 % of control | T/C (dose: 100.0 mg/kg/injection, schedule: Q01DX009 (ip), vehicle: acetone): 86 % of control | T/C [5]: 114 % of control | T/C [6]: 101 % of control | T/C (dose: 200.0 mg/kg/injection, schedule: Q01DX009 (ip), vehicle: acetone): 91 % of control | T/C (dose: 200.0 mg/kg/injection, schedule: Q04DX003 (ip), vehicle: saline): 106 % of control | T/C [7]: 100 % of control | T/C [8]: 102 % of control

Cc1cc(C2CCCCC2)c2ccccc2c1C
T/C (dose: 100.0 mg/kg/injection, schedule: Q01DX009 (ip), vehicle: saline sonified): 95 % of control | T/C [1]: 103 % of control | T/C (dose: 200.0 mg/kg/injection, schedule: Q01DX009 (ip), vehicle: saline sonified): 102 % of control | T/C [2]: 98 % of control | T/C (dose: 400.0 mg/kg/injection, schedule: Q01DX009 (ip), vehicle: saline sonified): 99 % of control | T/C [3]: 106 % of control

ClC1=C(Cl)C2CCC1C2
T/C (dose: 25.0 mg/kg/injection, schedule: Q01DX009 (ip), vehicle: saline with Tween-80): 88 % of control | T/C (dose: 50.0 mg/kg/injection, schedule: Q01DX009 (ip), vehicle: saline with Tween-80): 98 % of control | T/C (dose: 100.0 mg/kg/injection, schedule: Q01DX005 (ip), vehicle: saline with Tween-80): 96 % of control | T/C [9]: 94 % of control and 98 % of control | T/C [10]: 100 % of control | T/C (dose: 200.0 mg/kg/injection, schedule: Q01DX005 (ip), vehicle: saline with Tween-80): 92 % of control | T/C [11]: 100 % of control | T/C (dose: 400.0 mg/kg/injection, schedule: Q01DX005 (ip), vehicle: saline with Tween-80): 101 % of control

COc1cccc2c1C(=O)OC2=O
T/C (dose: 75.0 mg/kg/injection, schedule: Q01DX009 (ip), vehicle: Klucel (hydroxypropylcellulose) (HPC)): 88 % of control | T/C (dose: 150.0 mg/kg/injection, schedule: Q01DX009 (ip), vehicle: Klucel (hydroxypropylcellulose) (HPC)): 90 % of control | T/C (dose: 300.0 mg/kg/injection, schedule: Q01DX009 (ip), vehicle: Klucel (hydroxypropylcellulose) (HPC)): 88 % of control
